In US7223733B2, “Modulation of TRIP-Br function and method of treating proliferative disorders” (National University of Singapore, priority 2004, dated 2007):
Where no end group is shown, it is not given here.

Columns and labels:
Type in all cases: cell-based, human
cyclins and Cdks = assay: Cell cycle protein expression profile of U2OS cells released from nocodazole arrest (Western blot); conditions: U2OS released from nocodazole block; for timing of cyclin E protein accumulation: 20 μM; for absolute levels of cyclin E protein: up to 24 h post-release
Description: Cell synchronization and cell cycle progression analyses. U2OS cells in 6-well dishes were subjected to nocodazole treatment (75 ng/ml) for 22 h. Thereafter, the nocodazole-arrested cultures were released by washing with 1×PBS and grown in DMEM plus 10% FBS containing either vehicle (0.5% DMSO) or 20 μM decoy peptides. Cells were harvested at 4-h intervals for standard Western blot analyses. For the analysis of Geminin protein profile, mock- or cyclin E/Cdk2-transfected U2OS cells were exposed to nocodazole (75 ng/ml) at 3 h post-transfection for 22 h. Denaturing SDS-PAGE and western blotting. Proteins from whole cell lysate and IP complexes were separated using standard denaturing polyacrylamide gel electrophoresis as described previously (Hsu, S. I. H., et al. EMBO J 20, 2273-2285 (2001)). FIG. 7: Cell cycle protein expression profile and protein decay analysis. (A) Protein expression profile of U2OS cells released from nocodazole arrest in the absence or presence of decoy peptide treatment. Protein expression of various cyclins and Cdks was assessed by Western blotting using whole cell lysates from synchronized U2OS cells at 4, 8, 12, 16, 20 and 24 h after release. Coomassie-stained proteins served as loading controls; (B) U2OS cells transfected with vector backbone (vehicle) or pRc/cyclin E and pCMV/Cdk2 (1 μg each), were arrested at the G2/M boundary by exposure to nocodazole (75 ng/ml) and then released to re-enter the cell cycle. Protein expression of cyclin E and Geminin was assessed using whole cell lysates from synchronized U2OS cells at 0, 4, 8, 12, 16 and 20 h after release; (C) Protein decay analysis of Geminin expression in the absence or presence of cyclin E/Cdk2 over-expression (left panel) or in the absence or presence of decoy peptide treatment (right panel) by Western blotting (WB). Coomassie stained proteins served as the loading control (C).

PARP cleavage = assay: Western blot analysis of PARP cleavage in U2OS cells; conditions: 50 μM decoy peptides, 72 h
Description: Denaturing SDS-PAGE and western blotting. Proteins from whole cell lysate and IP complexes were separated using standard denaturing polyacrylamide gel electrophoresis as described previously (Hsu, S. I. H., et al. EMBO J 20, 2273-2285 (2001)).
FIG. 6: Caspase assay. (A) Caspase 3 protease activity in U2OS cells exposed to either Eto (Etoposide) for 24 h or 50 μM decoy peptides for 48 or 72 h, were assayed using the Ac-DEVD-AFC fluorogenic substrate. […] Values represent the average +/− standard deviation of two independent experiments. Control: cells cultured in normal growth medium; Vehicle: cells cultured in the presence of 0.5% DMSO; (B) Western blot analysis of PARP cleavage. U2OS cells were exposed to either Eto (Etoposide) for 24 h or 50 μM decoy peptides for 72 h. Lane 1: Vehicle cells (cultured in the presence of 0.5% DMSO for 24 h); Lane 2: 25 μM Eto; Lane 3: 250 μM Eto; Lane 4: Vehicle (cells cultured in the presence of 0.5% DMSO for 72 h); Lane 5: *SCR; Lane 6: *Br1; Lane 7: *Br2.

[1] = test system: KRIP-1-associated co-activating function on GAL4-TRIP-Br transcriptional activity; assay: GAL4-TRIP-Br/KRIP-1 luciferase reporter assay in U2OS cells; conditions: 50 μM decoy peptide
Description: DNA Transfection and Sequential β-Galactosidase/Luciferase Assay. For luciferase reporter assays, U2OS cells were cultured in 6-well dishes and transfected 24 h later with various reporter plasmids by the calcium precipitation method as previously described (Martin, K., et al. Nature 375, 691-694 (1995)). 24 h following precipitate removal, cells were exposed for 5 h to either vehicle (0.5% DMSO) or 50 μM of decoy peptide, prior to harvesting. Cells were scraped in 200 μl of lysis buffer and a single 10 μl aliquot of lysate was immediately used for sequential measurement of β-galactosidase and luciferase activity using the Dual Light System (Tropix). For protein overexpression experiments, U2OS cells were cultured in 6-well plates at a density of 1×10^5 cells/well and transfected 24 h later with Superfect reagent (QIAGEN).
FIG. 1: TRIP-Br decoy peptides antagonize KRIP-1/TRIP-Br PHD-bromodomain interactions. […] GAL4-KRIP-1 was specifically immunoprecipitated by the agarose-conjugated anti-GAL4 antibody (Lanes 3-5 & 7–10) but not by the non-specific control anti-cyclin E antibody (Lane 6); (B) Antagonism of PHD-bromodomain interactions in vivo. U2OS cells were transiently transfected with 0.4 μg of the indicated GAL4 expression constructs and 1.2 μg of pMT3A/KRIP-1, along with 0.4 μg of the minimal luciferase reporter pG5-GL3 and 0.1 μg of the control reporter pCMV/β-gal. […]

[2] = test system: CNE2 (nasal pharyngeal carcinoma); assay: Anti-proliferative phenotypes in CNE2 cells; conditions: data not shown
Geminin = assay: Protein decay analysis of Geminin in U2OS cells (cycloheximide); conditions: for Geminin steady state levels at 5-h post-CHX treatment: cycloheximide; for Geminin protein decay kinetics: cycloheximide 20 μg/ml, 0-5 h
Description: Protein decay analysis. Transfected or peptide-treated cells were exposed to 20 μg/ml cycloheximide (CHX). Whole cell lysates were prepared from the treated cells at 0, 1, 2, 3, 4 or 5-h post-CHX treatment for Western blot analysis. FIG. 7: Cell cycle protein expression profile and protein decay analysis. (A) Protein expression profile of U2OS cells released from nocodazole arrest in the absence or presence of decoy peptide treatment. Protein expression of various cyclins and Cdks was assessed by Western blotting using whole cell lysates from synchronized U2OS cells at 4, 8, 12, 16, 20 and 24 h after release. Coomassie-stained proteins served as loading controls; (B) U2OS cells transfected with vector backbone (vehicle) or pRc/cyclin E and pCMV/Cdk2 (1 μg each), were arrested at the G2/M boundary by exposure to nocodazole (75 ng/ml) and then released to re-enter the cell cycle. Protein expression of cyclin E and Geminin was assessed using whole cell lysates from synchronized U2OS cells at 0, 4, 8, 12, 16 and 20 h after release; (C) Protein decay analysis of Geminin expression in the absence or presence of cyclin E/Cdk2 over-expression (left panel) or in the absence or presence of decoy peptide treatment (right panel) by Western blotting (WB). Coomassie stained proteins served as the loading control (C).

| Sequence | timing of cyclin E protein accumulation (cyclins and Cdks) | absolute levels of cyclin E protein (cyclins and Cdks) | PARP cleavage compared to vehicle or *SCR-treated control (PARP cleavage) | KRIP-1-associated co-activating function on GAL4-TRIP-Br transcriptional activity [1] | response of CNE2 cells [2] | Geminin steady state levels at 5-h post-CHX treatment (Geminin) | Geminin protein decay kinetics (Geminin) |
| --- | --- | --- | --- | --- | --- | --- | --- |
| ERQIKIWFQNRRMKWKKATGCLLDDGLEGLFEDID (ERQIKIWFQNRRMKWKKATGCLLDDGLEGLFEDID-NH2) [*Br1] | premature accumulation of cyclin E beginning in early G1 | dramatically up-regulated and sustained at high levels | not associated with significant PARP cleavage | complete abolishment | in manners similar to those exhibited by U2OS cells | remained persistently high | significantly slower decay rate |
| ERQIKIWFQNRRMKWKKGLDEDGLLLFCEGDTIAD (Peptide containing penetratin sequence from Drosophila and random peptide sequence) [*SCR, reference compound] | accumulated during mid-to-late G1 between 8 h and 16 h post-release |  |  |  |  |  |  |
| ERQIKIWFQNRRMKWKKTGFLTDLTLDDILFADID (ERQIKIWFQNRRMKWKKTGFLTDLTLDDILFADID-NH2) [*Br2] | premature accumulation of cyclin E beginning in early G1 | dramatically up-regulated and sustained at high levels | not associated with significant PARP cleavage | complete abolishment | in manners similar to those exhibited by U2OS cells | remained persistently high | significantly slower decay rate |
